Earlier results, collected in US20020001575A1, “Nutritional system for nervous system disorders” (priority 2000, published 2002).

Settings: autistic children and adults, 18 consecutive studies 1965-1996

For Vitamin B-6, the helpfulness in autism is given as “helpful in almost half of all autistic children and adults”.
